# Measured values reported in paper PMC6689897, “Drugging an undruggable pocket on KRAS” (Proceedings of the National Academy of Sciences of the …, 2019).
# Target: GCP-KRASG12D (Homo sapiens, UniProt P01116, G12D)
# Test: HSQC NMR KD of fragment hits
# Assay type: binding
# Conditions: fragment screen hits, active form of KRAS
# Text: Next, we attempted to identify compounds that bind to GTP-KRAS via fragment-based screening ([21]–[23]). A library of 1,800 fragments was screened using both saturation transfer difference NMR ([24], [25]) and microscale thermophoresis ([26]) using KRAS^G12V-phosphomethylphosphonic acid guanylate ester (GCP-KRAS^G12V), from which 16 fragments were found and subsequently validated (hit rate 0.9%) by the observation of cross-peak shifts in the 2D ^1H/^15N heteronuclear single-quantum correlation (HSQC) NMR spectra of GCP-KRAS^G12D. We also screened a library of 13,800 compounds using uniformly ^15N-labeled GNP-KRAS by HSQC NMR experiments. Representatives of some of the fragments which bound the active form of KRAS from the 2 screens are depicted in Fig. 1A. […]
# 98 Measurement of dissociation constants KD for the compounds synthesized. NMR
# 99 was initially the only method that could provide K Ds for the weakly binding molecules to
# 100 support compound optimization. 1H/15N SoFast HMQC experiments(3) were recorded in
# 101 3mm NMR tubes (170µL filling) at a protein concentration of 70-100µM. Spectra were
# 102 recorded on a Avance III 700MHz spectrometer equipped with a cryogenically cooled
# 103 5mm TCI probe and 48 scans, 128 f1 increments and 2k data points in f2. Total
# 104 acquisition time was 22 minutes. 4 – 6 titration points were performed w ith individual
# 105 samples for each titration point made from 50mM DMSO -d6 stock solutions. Total
# 106 DMSO-d6 concentration was kept constant by backfilling every sample to a total of 4%
# 107 DMSO. KDs were calculated from the differences in chemical shift induced by t he small
# 108 molecules upon interacting with the protein. Average chemical shifts from the 1H and 15N
# 109 dimension were calculated according to the following equation:
# 110 ∆δobs = √[δH2 + (α ∙δN)2] with α set to 0.14
# 111 The Δδobs values at the respective ligand concentrations and the total concentration
# 112 of protein allow a fit to the KD value of the ligand as long as it is binding under fast
# 113 exchange conditions as was the case for most of the compounds tested.(4) Usually Δδobs
# 115 following equation was used to determine the individual KDs: […]
# 121 HEPES, 150 mM NaCl, 3% DMSO, pH 7.5. All measurements were carried out at 25°C.
# 122 Titrations were performed in inverse mode. The cell was loaded with compound solutions
# 123 in the range of 10 to 100 µM. All injections were performed using an initial injection of
# 124 0.5 μL followed by 19 injections of 2 μL of protein in the range of 130-500 µM. The data
# 125 were analyzed with the MicroCal PEAQ-ITC analysis software package. The first data
# Chain of GCP-KRASG12D (P01116 1-169 isoform P01116-2 G12D): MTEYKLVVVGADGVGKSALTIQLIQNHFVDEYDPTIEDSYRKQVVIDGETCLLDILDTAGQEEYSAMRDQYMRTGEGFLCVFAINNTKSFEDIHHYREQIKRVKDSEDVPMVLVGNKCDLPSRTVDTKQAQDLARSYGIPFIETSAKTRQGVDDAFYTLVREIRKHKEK
smiles,measurement,value
Clc1ccc2[nH]c3c(c2c1)CNCC3 [Compound 2],Kd,> 2 mM
O=C(c1c[nH]c2ccccc12)N1CCNCC1 [Compound 3],Kd,> 2 mM
Nc1nc2ccccc2n1Cc1ccccc1 [Compound 4],Kd,> 2 mM
c1ccc2c(CN3CCOCC3)c[nH]c2c1 [Compound 6],Kd,> 5 mM
Nc1ccc2nc(Cc3c[nH]c4ccccc34)[nH]c2c1 [Compound 7],Kd,1.3 mM
